Laboratory results as given in patent US11795460B2, “Compositions and methods for TTR gene editing and treating ATTR amyloidosis” (Intellia Therapeutics, Inc., priority 2017, dated 2023).

Assays:
[1] = tested on: TTR; test: TTR editing in primary human hepatocytes transfected with Spy Cas9 mRNA and dgRNAs (Table 9); format: cell-based; settings: dgRNA co-transfected with Spy Cas9 mRNA (SEQ ID NO:2)
In short: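 PHH sequentially lipofected with Spy Cas9 mRNA (100 ng), then crRNA plus tracrRNA (25 nM each) dual-guide lipoplex. Cells harvested 24, 48 or 72 h post-transfection; TTR target amplicons sequenced on Illumina MiSeq, editing given as percent reads with indels or substitutions over total reads.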

[2] = tested on: TTR; test: TTR editing in HEK293_Cas9 cells transfected with dgRNAs (Table 4); format: cell-based, human; settings: HEK293_Cas9 cells (constitutively express Spy Cas9) transfected with dgRNAs
In short: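 Percent editing, taken from amplicon NGS as the fraction of all reads carrying insertions, deletions or substitutions, was measured 24, 48 or 72 h after delivery. Delivery used RNAiMAX lipoplexes of 25 nM each crRNA and trRNA into HEK293 cells stably expressing Spy Cas9.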

[3] = tested on: off-target genomic sites; test: Off-target oligo insertion based assay in HEK293_Cas9 cells, dgRNAs and sgRNAs (Tables 23, 24); format: cell-based, human; settings: Table 23; TTR dgRNAs in HekCas9 cells, oligo insertion based assay
In short: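 In HEK293 cells constitutively expressing Spy Cas9, crRNA (15 nM) plus trRNA (15 nM), or modified sgRNAs, were lipofected with donor oligo (10 nM). Genomic DNA was collected at 24 h, and oligo-insertion libraries were sequenced on MiSeq/HiSeq to map potential off-target cleavage sites.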

Row | Sequence | Avg % Deletion [1] [%] | Avg % Edit [1] [%] | Avg % Insert [1] [%] | Avg % Deletion [2] [%] | Avg % Edit [2] [%] | Avg % Insert [2] [%] | # Sites (off-target integration sites detected) [3]
1 | GGAGUAGGGGCUCAGCAGGG (tested as dual guide RNA, chemistry not given here) [CR003382] | 0.00 | 0.97 | 0.97 | 25.49 | 29.95 | 4.46 | 34
2 | ACACAAAUACCAGUCCAGCA (tested as dual guide RNA, chemistry not given here) [CR003339] | 34.23 | 36.43 | 2.27 | 6.98 | 56.37 | 49.39 | 3
3 | CUCUGCAUGCUCAUGGAAUG (tested as dual guide RNA, chemistry not given here) [CR003369] | 0.70 | 1.60 | 0.90 | 24.04 | 33.10 | 9.06 | 2
4 | GCGGCAAUGGUGUAGCGGCG (tested as dual guide RNA, chemistry not given here) [CR003377] | 0.57 | 17.53 | 16.97 | 21.99 | 24.70 | 2.71 | 0
5 | AGUCCCUCAUUCCUUGGGAU (tested as dual guide RNA, chemistry not given here) [CR003392] | 0.07 | 2.43 | 2.37 | 20.82 | 21.67 | 0.85 | 0
6 | CUGCUCCUCCUCUGCCUUGC (tested as dual guide RNA, chemistry not given here) [CR003335] | 3.40 | 36.43 | 33.03 | 21.87 | 26.59 | 4.73 | 0
7 | AAGUGCCUUCCAGUAAGAUU (tested as dual guide RNA, chemistry not given here) [CR003368] | 0.60 | 11.10 | 10.53 | 36.61 | 40.35 | 3.73 | 2
8 | AGCCUUUCUGAACACAUGCA (tested as dual guide RNA, chemistry not given here) [CR003351] | 16.37 | 26.50 | 10.20 | 21.24 | 49.67 | 28.42 | 1
9 | AAAGGCUGCUGAUGACACCU (tested as dual guide RNA, chemistry not given here) [CR003353] | 4.43 | 53.73 | 49.50 | 21.32 | 25.03 | 3.71 | 2
10 | CUUCUCUACACCCAGGGCAC (tested as dual guide RNA, chemistry not given here) [CR003342] | 1.50 | 22.10 | 20.60 | 35.38 | 36.57 | 1.19 | 0
11 | CCAGUCCAGCAAGGCAGAGG (tested as dual guide RNA, chemistry not given here) [CR003337] | 1.23 | 19.30 | 18.10 | 37.48 | 42.72 | 5.24 | 10
